Assays:
[1] = molecular target: T1, human recombinant β2 adrenoceptor (Homo sapiens, UniProt P07550); assay: cell-based; assay type: cell-based; conditions: EC50 (β1)/EC50 (β2)
T1 construct: expressed in transfected cells

[2] = system: bronchoconstriction response in the trachea of guinea pig induced by Mch; assay: Bronchoconstriction induced by methacholine (Mch) in anaesthetized guinea pigs, airway dripping (Raw, Cdyn); conditions: Mch 10 μg/kg iv; for Cdyn (ml/cmH2O) / Raw (cmH2O/ml/s): 30 min, Mean ± S.E.M
[3] = system: tracheal smooth muscle of guinea pig; assay: Relaxation of CCh-induced constriction of isolated guinea pig tracheal smooth muscle (Experimental Example 1); conditions: for Onset time (min) ± SD / Time for eliminating inhibition effect (min): CCh 3 × 10^−6 mol/L, in vitro; for EC50: Cavia porcellus, read-out: EC50 (μM) ± SD
Method: The upper end was connected with a muscle tension transducer, and the specimen was given a resting tension of 1.0 g. Muscle tension changes were recorded, nutrient solution was changed every 20 min, and the experiment was started after 60 min of equilibrium.
Administration Method: After the trachea flake were stabilized, 3×10^−6 mol/L CCh was added to the bath. […] Diastolic condition of the trachea flake was observed. If no response occurred (below the threshold concentration), the next dosage was continued to be added in the order. If any response occurred, the next dosage was added until its diastolic platform was reached. The above operation was repeated until the shrink curve reached the minimum. Finally, 10^−6 mol/L isoproterenol was added to establish maximum relaxation, and the curve was recorded.
Statistical Methods: Statistics was performed using the Sigma Stat statistical software package, the data was analyzed by using the variance analysis. Student-Newman-Keuls (SNK) test was used in comparison among multiple sample averages number. The statistical test level was α=0.05 (bilateral).

T1 sequence (P07550 whole entry): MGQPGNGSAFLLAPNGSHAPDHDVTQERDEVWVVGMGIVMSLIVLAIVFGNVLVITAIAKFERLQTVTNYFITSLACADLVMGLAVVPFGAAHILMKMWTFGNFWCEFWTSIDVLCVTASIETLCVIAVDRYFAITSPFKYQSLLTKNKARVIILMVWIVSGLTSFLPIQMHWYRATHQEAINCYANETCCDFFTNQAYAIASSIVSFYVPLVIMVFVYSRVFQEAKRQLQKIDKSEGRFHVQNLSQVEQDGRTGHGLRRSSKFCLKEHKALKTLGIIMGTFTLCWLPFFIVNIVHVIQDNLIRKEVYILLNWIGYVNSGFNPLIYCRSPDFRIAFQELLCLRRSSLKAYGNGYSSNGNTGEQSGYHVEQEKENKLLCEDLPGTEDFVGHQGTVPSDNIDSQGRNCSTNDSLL

Compound | sel (β1/β2) [1] | Cdyn (ml/cmH2O) ([2]; 0.1 μg/kg airway dripping) | Raw (cmH2O/ml/s) ([2]; 0.1 μg/kg airway dripping) | inhibitory rate of lung dynamic compliance decrease ([2]; 0.1 μg/kg airway dripping) | inhibitory rate on airway resistance increase ([2]; 0.1 μg/kg airway dripping) | Cdyn (ml/cmH2O) ([2]; 0.3 μg/kg airway dripping) | Raw (cmH2O/ml/s) ([2]; 0.3 μg/kg airway dripping) | inhibitory rate of lung dynamic compliance decrease ([2]; 0.3 μg/kg airway dripping) | inhibitory rate on airway resistance increase ([2]; 0.3 μg/kg airway dripping) | Cdyn (ml/cmH2O) ([2]; 1 μg/kg airway dripping) | Raw (cmH2O/ml/s) ([2]; 1 μg/kg airway dripping) | inhibitory rate of lung dynamic compliance decrease ([2]; 1 μg/kg airway dripping) | inhibitory rate on airway resistance increase ([2]; 1 μg/kg airway dripping) | Onset time (min) ± SD [3] | Time for eliminating inhibition effect (min) [3] | EC50 [3]
OCc1cc([C@@H](O)CNCCOCCCOCC[N+]23CCC(CC2)[C@@H](OC[C@@](O)(c2ccccc2)C2CCCC2)C3)ccc1O.[Br-] [Compound 48] | 423.8 | 0.115 ± 0.011 ml/cmH2O | 0.712 ± 0.065 cmH2O/ml/s | 32.2% | 66.2% | 0.139 ± 0.012 ml/cmH2O | 0.523 ± 0.032 cmH2O/ml/s | 48.9% | 88.3% | 0.207 ± 0.016 ml/cmH2O | 0.493 ± 0.071 cmH2O/ml/s | 50.1% | 91.6% | 6.32 ± 0.49 min | more than 300 min | 0.0154 ± 0.012 µM
COc1cc(C(C)NC[C@H](O)c2ccc(O)c(CO)c2)ccc1OCCC[N+]12CCC(CC1)[C@@H](OC[C@@](O)(c1ccccc1)C1CCCC1)C2.[Br-] (stereo partly shown) [Compound 70] | 379.8 | 0.218 ± 0.013 ml/cmH2O | 0.702 ± 0.098 cmH2O/ml/s | 34.2% | 69.6% | 0.357 ± 0.087 ml/cmH2O | 0.613 ± 0.107 cmH2O/ml/s | 47.8% | 86.5% | 0.345 ± 0.076 ml/cmH2O | 0.431 ± 0.095 cmH2O/ml/s | 49.3% | 92.1% | 7.15 ± 0.31 min | more than 300 min | 0.0183 ± 0.0087 µM
CCC(NC[C@H](O)c1ccc(O)c(NC=O)c1)c1ccc(OCCC[N+]23CCC(CC2)[C@@H](OC[C@@](O)(c2ccccc2)C2CCCC2)C3)cc1.[Br-] (stereo partly shown) [Compound 97] | 56.7 |  |  |  |  |  |  |  |  |  |  |  |  | 6.36 ± 0.22 min | more than 300 min | 0.0167 ± 0.0062 µM
CC(C)(Cc1ccc(OCC[N+]23CCC(CC2)[C@@H](OC[C@@](O)(c2ccccc2)C2CCCCC2)C3)cc1)NC[C@H](O)c1ccc(O)c(NC=O)c1.[Br-] [Compound 99] | 389 | 0.120 ± 0.017 ml/cmH2O | 0.778 ± 0.073 cmH2O/ml/s | 35.0% | 73.5% | 0.158 ± 0.021 ml/cmH2O | 0.528 ± 0.082 cmH2O/ml/s | 48.8% | 86.8% | 0.223 ± 0.035 ml/cmH2O | 0.421 ± 0.069 cmH2O/ml/s | 49.7% | 91.9% | 7.35 ± 0.33 min | more than 300 min | 0.0172 ± 0.0072 µM
O=C1COc2c(cc(O)cc2[C@@H](O)CNCc2ccc(OCCC[N+]34CCC(CC3)[C@@H](OC[C@@](O)(c3ccccc3)C3CCCC3)C4)cc2)N1 [Compound 102] | 102.6 |  |  |  |  |  |  |  |  |  |  |  |  | 5.78 ± 0.23 min | more than 300 min | 0.0371 ± 0.019 µM
O=C1COc2c(cc(O)cc2[C@@H](O)CNCCCc2ccc(OCCC[N+]34CCC(CC3)[C@@H](OC[C@@](O)(c3ccccc3)C3CCCC3)C4)cc2)N1 [Compound 104] | 29.6 |  |  |  |  |  |  |  |  |  |  |  |  | 6.67 ± 0.17 min | more than 300 min | 0.0106 ± 0.0079 µM
O=C1COc2c(cc(O)cc2[C@@H](O)CNCc2cc(Cl)c(OCCC[N+]34CCC(CC3)[C@@H](OC[C@@](O)(c3ccccc3)C3CCCC3)C4)c(Cl)c2)N1.[Br-] [Compound 106] | 288.9 |  |  |  |  |  |  |  |  |  |  |  |  | 6.26 ± 0.24 min | more than 300 min | 0.0183 ± 0.0086 µM
OCc1cc([C@@H](O)CNCCOc2ccc(OCC[N+]34CCC(CC3)[C@@H](OC[C@@](O)(c3ccccc3)C3CCCC3)C4)cc2)ccc1O [Compound 114, (R)-(−)-3-[(R)-2-hydroxy-2-cyclopentyl-2-phenyl]ethoxy-1-{2-[4-(2-{(R)-[2-(3-hydroxymethyl-4-hydroxy)phenyl-2-hydroxy]ethylamino}ethyoxyl)phenoxy]ethyl}-1-azabicyclo[2,2,2]octylonium bromide] | 98.9 |  |  |  |  |  |  |  |  |  |  |  |  | 6.24 ± 0.13 min | more than 300 min | 
COc1cc(CNCC(O)c2ccc(O)c3[nH]c(=O)ccc23)c(Cl)cc1NC(=O)CC[N+]12CCC(CC1)C(OCC(O)(c1ccccc1)C1CCCC1)C2 [Compound 115, (R)-(−)-3-[(R)-2-hydroxy-2-cyclopentyl-2-phenyl]ethoxy-1-{3-[5-chloro-2-methoxy-4-({(R)-[2-hydroxy-2-(8-hydroxy-2-oxo-1,2-dihydroquinolin-5-yl)]ethylamino}methyl)anilino]oxopropyl}-1-azabicyclo[2,2,2]octylonium bromide] | 85.5 |  |  |  |  |  |  |  |  |  |  |  |  | 6.82 ± 0.36 min | more than 300 min | 0.0237 ± 0.01 µM
O=C(CC[N+]12CCC(CC1)[C@@H](OC[C@@](O)(c1ccccc1)C1CCCC1)C2)Nc1ccc(CNC[C@H](O)c2cc(O)cc3c2OCC(=O)N3)cc1 [Compound 116, (R)-(−)-3-[(R)-2-hydroxy-2-cyclopentyl-2-phenyl]ethoxy-1-{3-[4-({(R)-[2-hydroxy-2-(6-hydroxy-2H-1,4-benzoxazin-3(4H)-one-8-yl)]ethylamino}methyl)anilino]oxopropyl}-1-azabicyclo[2,2,2]octylonium bromide] | 68.8 |  |  |  |  |  |  |  |  |  |  |  |  | 6.28 ± 0.56 min | more than 300 min | 0.0267 ± 0.0072 µM
CC(NC[C@H](O)c1ccc(O)c(NC=O)c1)c1ccc(COCC[N+]23CCC(CC2)[C@@H](OC[C@@](O)(c2ccccc2)C2CCCC2)C3)cc1 (stereo partly drawn) [Compound 117, (R)-(−)-3-[(R)-2-hydroxy-2-cyclopentyl-2-phenyl]ethoxy-1-{2-[4-(2-{(R)-[2-hydroxy-2-(3-formamido-4-hydroxy)phenyl]ethylamino}ethylidene)benzyloxy]ethyl}-1-azabicyclo[2,2,2]octylonium bromide] | 39.8 |  |  |  |  |  |  |  |  |  |  |  |  | 5.96 ± 0.21 min | more than 300 min | 0.0217 ± 0.0081 µM
O=C1COc2c(cc(O)cc2[C@@H](O)CNCCOCc2ccc(COCC[N+]34CCC(CC3)[C@@H](OC[C@@](O)(c3ccccc3)C3CCCC3)C4)cc2)N1 [Compound 118, (R)-(−)-3-[(R)-2-hydroxy-2-cyclopentyl-2-phenyl]ethoxy-1-{2-[4-(2-{(R)-[2-hydroxy-2-(6-hydroxy-2H-1,4-benzoxazin-3(4H)-one-8-yl)]ethylamino}ethoxymethyl)benzyloxy]ethyl}-1-azabicyclo[2,2,2]octylonium bromide] | 23.8 |  |  |  |  |  |  |  |  |  |  |  |  | 6.24 ± 0.41 min | more than 300 min | 0.0241 ± 0.012 µM
Cc1cc(CNC[C@H](O)c2ccc(O)c(NC=O)c2)ccc1NC(=O)CC[N+]12CCC(CC1)[C@@H](OC[C@@](O)(c1ccccc1)C1CCCC1)C2.[Br-] [Compound 140] | 86.9 |  |  |  |  |  |  |  |  |  |  |  |  | 6.18 ± 0.18 min | more than 300 min | 0.0235 ± 0.0054 µM
COC1CCC([C@@](O)(CO[C@H]2C[N+]3(CCC(=O)Nc4ccc(CNC[C@H](O)c5ccc(O)c(NC=O)c5)cc4)CCC2CC3)c2ccccc2)C1.[Br-] (stereo partly shown) [Compound 141] | 135.9 |  |  |  |  |  |  |  |  |  |  |  |  | 5.88 ± 0.26 min | more than 300 min | 0.0363 ± 0.0095 µM
